# Structures can show the parent of a compound that is named as a salt.
# Target: T1, catalytic domain of human PARP14 (residues 1611 to 1801) with NanoLuc tag (Homo sapiens, UniProt Q460N5)
# T1 construct: expressed in transfected cells; host or cells: HEK-293T cells (ATCC), pcDNA3.1(-) vector
# T1 sequence (Q460N5 1611-1801): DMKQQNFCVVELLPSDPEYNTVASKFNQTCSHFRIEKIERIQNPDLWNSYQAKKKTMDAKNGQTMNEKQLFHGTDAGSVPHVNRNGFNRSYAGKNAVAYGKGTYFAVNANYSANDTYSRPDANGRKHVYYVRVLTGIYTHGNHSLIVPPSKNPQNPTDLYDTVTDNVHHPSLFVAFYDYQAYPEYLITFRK
# Test: NanoLuc assay for the degradation of PARP14 (NanoLuc-tagged PARP14 overexpressed in HEK-293T cells, 2 hours)
# Format: cell-based
# Details: Assay A (Example A): NanoLuc-tagged PARP14 degradation in HEK-293T cells, read-out: DC50
row,SMILES,DC50 [nM]
1,"O=C1CCC(N2C(=O)c3ccc(OC4CC(CN5CCC(COc6cc(F)c7c(=O)[nH]c(CSC8CCOCC8)nc7c6)CC5)C4)cc3C2=O)C(=O)N1 (stereo not drawn) [Example 79a, 2-(2,6-dioxopiperidin-3-yl)-5-((1r,3r)-3-((4-(((5-fluoro-4-oxo-2-(((tetrahydro-2H-pyran-4-yl)thio)methyl)-3,4-dihydroquinazolin-7-yl)oxy)methyl)piperidin-1-yl)methyl)cyclobutoxy)isoindoline-1,3-dione]",< 100
2,"O=C1CCC(Nc2ccc(N3CCN(CCN4CCC(COc5cc(F)c6c(=O)[nH]c(CSC7CCOCC7)nc6c5)CC4)CC3)nc2)C(=O)N1 (stereo not drawn) [Example 69, 3-((6-(4-(2-(4-(((5-fluoro-4-oxo-2-(((tetrahydro-2H-pyran-4-yl)thio)methyl)-3,4-dihydroquinazolin-7-yl)oxy)methyl)piperidin-1-yl)ethyl)piperazin-1-yl)pyridin-3-yl)amino)piperidine-2,6-dione]",< 100
3,"O=C1CCC(N2C(=O)c3cccc(OC4CC(CN5CCC(COc6cc(F)c7c(=O)[nH]c(CSC8CCOCC8)nc7c6)CC5)C4)c3C2=O)C(=O)N1 (single isomer, unassigned) [Example 80a, 2-(2,6-dioxopiperidin-3-yl)-4-((1r,3r)-3-((4-(((5-fluoro-4-oxo-2-(((tetrahydro-2H-pyran-4-yl)thio)methyl)-3,4-dihydroquinazolin-7-yl)oxy)methyl)piperidin-1-yl)methyl)cyclobutoxy)isoindoline-1,3-dione]",< 100
4,"CN(c1ccc(N2CCN(CCN3CCC(COc4cc(F)c5c(=O)[nH]c(CSC6CCOCC6)nc5c4)CC3)CC2)cc1)C1CCC(=O)NC1=O (stereo not drawn) [Example 66, 3-((4-(4-(2-(4-(((5-fluoro-4-oxo-2-(((tetrahydro-2H-pyran-4-yl)thio)methyl)-3,4-dihydroquinazolin-7-yl)oxy)methyl)piperidin-1-yl)ethyl)piperazin-1-yl)phenyl)(methyl)amino)piperidine-2,6-dione]",< 100
5,"O=C1CC[C@H](Nc2ccc(N3CCN(CCN4CCC(COc5cc(F)c6c(=O)[nH]c(CSC7CCOCC7)nc6c5)CC4)CC3)cc2)C(=O)N1 (single isomer, unassigned) [Example 48a]",< 100
6,"Cn1nc(N2CCC(=O)NC2=O)c2ccc(N3CCN(CCN4CCC(COc5cc(F)c6c(=O)[nH]c(CSC7CCOCC7)nc6c5)CC4)CC3)cc21 [Example 75, 1-(6-(4-(2-(4-(((5-fluoro-4-oxo-2-(((tetrahydro-2H-pyran-4-yl)thio)methyl)-3,4-dihydroquinazolin-7-yl)oxy)methyl)piperidin-1-yl)ethyl)piperazin-1-yl)-1-methyl-1H-indazol-3-yl)dihydropyrimidine-2,4(1H,3H)-dione]",< 100
7,"O=C1CCN(c2cccc(C#CCN3CCC(COc4cc(F)c5c(=O)[nH]c(CSC6CCOCC6)nc5c4)CC3)c2)C(=O)N1 [Example 33, 1-(3-(3-(4-(((5-fluoro-4-oxo-2-(((tetrahydro-2H-pyran-4-yl)thio)methyl)-3,4-dihydroquinazolin-7-yl)oxy)methyl)piperidin-1-yl)prop-1-yn-1-yl)phenyl)dihydropyrimidine-2,4(1H,3H)-dione]",< 100
8,"O=C1CCC(Nc2ccc(N3CCC(N4CCN(CCc5cc(F)c6c(=O)[nH]c(CSC7CCOCC7)nc6c5)CC4)CC3)cc2)C(=O)N1 (stereo not drawn) [Example 86, 3-((4-(4-(4-(2-(5-fluoro-4-oxo-2-(((tetrahydro-2H-pyran-4-yl)thio)methyl)-3,4-dihydroquinazolin-7-yl)ethyl)piperazin-1-yl)piperidin-1-yl)phenyl)amino)piperidine-2,6-dione]",< 100
9,"O=C1CCC(Nc2ccc(C3CCN(CC4CCN(C(=O)CN5CCC(COc6cc(F)c7c(=O)[nH]c(CSC8CCOCC8)nc7c6)CC5)CC4)CC3)cc2)C(=O)N1 (stereo not drawn) [Example 18, 3-((4-(1-((1-(2-(4-(((5-fluoro-4-oxo-2-(((tetrahydro-2H-pyran-4-yl)thio)methyl)-3,4-dihydroquinazolin-7-yl)oxy)methyl)piperidin-1-yl)acetyl)piperidin-4-yl)methyl)piperidin-4-yl)phenyl)amino)piperidine-2,6-dione]",< 100
10,O=C1CCC(Nc2ccc(N3CCN(C4CCC(COc5cc(F)c6c(=O)[nH]c(CSC7CCOCC7)nc6c5)CC4)CC3)cc2)C(=O)N1 (stereo not drawn) [Example 124],< 100
11,"O=C1CCC(N2Cc3c(cccc3N3CC(CN4CCC(COc5cc(F)c6c(=O)[nH]c(CSC7CCOCC7)nc6c5)CC4)C3)C2=O)C(=O)N1 (stereo not drawn) [Example 38, 3-(4-(3-((4-(((5-fluoro-4-oxo-2-(((tetrahydro-2H-pyran-4-yl)thio)methyl)-3,4-dihydroquinazolin-7-yl)oxy)methyl)piperidin-1-yl)methyl)azetidin-1-yl)-1-oxoisoindolin-2-yl)piperidine-2,6-dione]",< 100
12,"O=C1CCC(Nc2ccc(CN3CCC(N4CCC(COc5cc(F)c6c(=O)[nH]c(CSC7CCOCC7)nc6c5)CC4)CC3)cc2)C(=O)N1 (stereo not drawn) [Example 84, 3-((4-((4-(((5-fluoro-4-oxo-2-(((tetrahydro-2H-pyran-4-yl)thio)methyl)-3,4-dihydroquinazolin-7-yl)oxy)methyl)-[1,4′-bipiperidin]-1′-yl)methyl)phenyl)amino)piperidine-2,6-dione]",< 100

# The next lines start with the values.
row,DC50 [nM],SMILES
1,< 100,"O=C(CN1CCC(COc2cc(F)c3c(=O)[nH]c(CSC4CCOCC4)nc3c2)CC1)NCCOCCOCCNc1cccc2c1C(=O)N(C1CCC(=O)NC1=O)C2=O (stereo not drawn) [Example 7, N-(2-(2-(2-((2-(2,6-dioxopiperidin-3-yl)-1,3-dioxoisoindolin-4-yl)amino)ethoxy)ethoxy)ethyl)-2-(4-(((5-fluoro-4-oxo-2-(((tetrahydro-2H-pyran-4-yl)thio)methyl)-3,4-dihydroquinazolin-7-yl)oxy)methyl)piperidin-1-yl)acetamide]"
2,< 100,"O=C1CCC(Oc2ccc(N3CCN(CCN4CCC(COc5cc(F)c6c(=O)[nH]c(CSC7CCOCC7)nc6c5)CC4)CC3)cc2)C(=O)N1 (stereo not drawn) [Example 65, 3-(4-(4-(2-(4-(((5-fluoro-4-oxo-2-(((tetrahydro-2H-pyran-4-yl)thio)methyl)-3,4-dihydroquinazolin-7-yl)oxy)methyl)piperidin-1-yl)ethyl)piperazin-1-yl)phenoxy)piperidine-2,6-dione]"
3,< 100,"O=C1CCC(N2C(=O)c3ccc(N4CC(N5CCC(COc6cc(F)c7c(=O)[nH]c(CSC8CCOCC8)nc7c6)CC5)C4)cc3C2=O)C(=O)N1 (stereo not drawn) [Example 41, 2-(2,6-dioxopiperidin-3-yl)-5-(3-(4-(((5-fluoro-4-oxo-2-(((tetrahydro-2H-pyran-4-yl)thio)methyl)-3,4-dihydroquinazolin-7-yl)oxy)methyl)piperidin-1-yl)azetidin-1-yl)isoindoline-1,3-dione]"
4,< 100,"O=C1CCC(N2C(=O)c3cccc(NC(=O)CN4CCC(COc5cc(F)c6c(=O)[nH]c(CSC7CCOCC7)nc6c5)CC4)c3C2=O)C(=O)N1 (stereo not drawn) [Example 26, N-(2-(2,6-dioxopiperidin-3-yl)-1,3-dioxoisoindolin-4-yl)-2-(4-(((5-fluoro-4-oxo-2-(((tetrahydro-2H-pyran-4-yl)thio)methyl)-3,4-dihydroquinazolin-7-yl)oxy)methyl)piperidin-1-yl)acetamide]"
5,< 100,"O=C1CCC(Nc2ccc(N3CCC(N4CCC(COc5cc(F)c6c(=O)[nH]c(CSC7CCN(CC(F)(F)F)CC7)nc6c5)CC4)CC3)cc2)C(=O)N1 (stereo not drawn) [Example 89, 3-((4-(4-(((5-fluoro-4-oxo-2-(((1-(2,2,2-trifluoroethyl)piperidin-4-yl)thio)methyl)-3,4-dihydroquinazolin-7-yl)oxy)methyl)-[1,4′-bipiperidin]-1′-yl)phenyl)amino)piperidine-2,6-dione]"
6,< 100,"O=C1CCC(N2C(=O)c3cccc(N4CC(CN5CCC(COc6cc(F)c7c(=O)[nH]c(CSC8CCOCC8)nc7c6)CC5)C4)c3C2=O)C(=O)N1 (stereo not drawn) [Example 37, 2-(2,6-dioxopiperidin-3-yl)-4-(3-((4-(((5-fluoro-4-oxo-2-(((tetrahydro-2H-pyran-4-yl)thio)methyl)-3,4-dihydroquinazolin-7-yl)oxy)methyl)piperidin-1-yl)methyl)azetidin-1-yl)isoindoline-1,3-dione]"
7,< 100,"O=C1CCC(Nc2ccc(N3CC(N4CCC(COc5cc(F)c6c(=O)[nH]c(CSC7CCOCC7)nc6c5)C(F)(F)C4)C3)cc2)C(=O)N1 (stereo not drawn) [Example 52, 3-((4-(3-(3,3-difluoro-4-(((5-fluoro-4-oxo-2-(((tetrahydro-2H-pyran-4-yl)thio)methyl)-3,4-dihydroquinazolin-7-yl)oxy)methyl)piperidin-1-yl)azetidin-1-yl)phenyl)amino)piperidine-2,6-dione formate salt]"
8,< 100,"O=C1CCC(N2C(=O)c3cccc(N4CC(N5CCC(COc6cc(F)c7c(=O)[nH]c(CSC8CCOCC8)nc7c6)CC5)C4)c3C2=O)C(=O)N1 (stereo not drawn) [Example 40, 2-(2,6-dioxopiperidin-3-yl)-4-(3-(4-(((5-fluoro-4-oxo-2-(((tetrahydro-2H-pyran-4-yl)thio)methyl)-3,4-dihydroquinazolin-7-yl)oxy)methyl)piperidin-1-yl)azetidin-1-yl)isoindoline-1,3-dione]"
9,< 100,"O=C1CCC(Nc2ccc(N3CC(CN4CCC(COc5cc(F)c6c(=O)[nH]c(CSC7CCOCC7)nc6c5)CC4)C3)cc2)C(=O)N1 (stereo not drawn) [Example 53, 3-((4-(3-((4-(((5-fluoro-4-oxo-2-(((tetrahydro-2H-pyran-4-yl)thio)methyl)-3,4-dihydroquinazolin-7-yl)oxy)methyl)piperidin-1-yl)methyl)azetidin-1-yl)phenyl)amino)piperidine-2,6-dione]"
